According to patent US12384769B2, “Heteroaryl-substituted aminoalkyl azole compounds as pesticides” (Elanco Animal Health GmbH, priority 2019, dated 2025):

Columns and labels:
Type in all cases: in vivo
[1] = test system: Rhipicephalus microplus (strain Parkhurst, resistant against synthetic pyrethroids); assay: Rhipicephalus microplus in-vitro contact test, larval cattle tick (BOOPMI Contact); conditions: 5 μg/cm^2 (=500 g/ha), after 48 hours, read-out: activity (efficacy, larvae dead or moribund)
Procedure, shortened: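 Glass tubes coated with compound in acetone (900 ppm giving 5 μg/cm²), dried, then loaded with 20-50 pyrethroid-resistant Parkhurst larvae and held at 27 °C, 85% RH. After 48 h negative geotaxis is scored; efficacy in % dead or moribund larvae.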

Diabrotica balteata = Diabrotica balteata spray test; conditions: 168 h, wheat seeds, after 7 days, read-out: activity (efficacy, seedlings grown); for pest or weed control at 160 µg/disc, 500 g/ha: 500 g/ha (=160 μg/well)
Procedure, shortened: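 Germinated wheat seedlings (5 per well, on agar) sprayed with compound in acetone/DMF with emulsifier-containing water, then infested with 10–20 Diabrotica balteata larvae. Efficacy (%) scored after 7 days from seedling growth: 100% = growth as untreated uninfested control, 0% = no seedlings grown.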

Rhipicephalus sanguineus = Rhipicephalus sanguineus in-vitro contact test, adult brown dog ticks (RHIPSA Contact); conditions: 5 μg/cm^2 (=500 g/ha), after 48 hours, read-out: activity (efficacy, ticks dead or moribund)
Description: Rhipicephalus sanguineus—in-Vitro Contact Tests with Adult Brown Dog Ticks (RHIPSA Contact)
(§1) 9 mg compound is solved in 1 ml acetone and diluted with acetone to the desired concentration. 250 μl_, of the test solution is filled in 25 ml glass test tubes and homogeneously distributed on the inner walls by rotation and tilting on a shaking device (2 h at 30 rpm). With a compound concentration of 900 ppm, an inner surface of 44.7 cm^2 and a homogeneous distribution, a dose of 5 μg/cm^2 is achieved.
(§2) After the solvent has evaporated, each test tube is filled with 5-10 adult brown dog ticks (Rhipicephalus sanguineus), closed with a perforated lid and incubated in a lying position at room temperature and relative humidity. After 48 hours efficacy is determined. The ticks are patted on the ground of the tubes and are incubated on a heating plate at 45-50° C. for at most 5 minutes Immotile or uncoordinated moving ticks, which are not able to escape the heat by climbing upwards, are marked as dead or moribund.
An efficacy of 100% means all ticks are dead or moribund; 0% means no ticks are dead or moribund.

Spodoptera frugiperda = Spodoptera frugiperda spray test; conditions: in Zea mays, 168 h, read-out: activity (mortality)
Procedure, shortened: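 Compound in acetone/DMF, diluted in water with 1000 ppm alkylarylpolyglycol ether emulsifier, sprayed on maize leaf sections. Dried leaves infested with fall armyworm larvae; % mortality after 7 days (100% = all killed, 0% = none).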

Ctenocephalides felis [2] = assay: Ctenocephalides felis oral test (CTECFE); conditions: 48 h, 100 ppm in cattle blood, after 2 days
Procedure, shortened: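 About 20 adult unfed fleas fed through parafilm on cattle blood held at 37° C and dosed with compound from a DMSO concentrate; flea chamber at room temperature. Percent mortality scored after 2 days.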

Boophilus microplus = Boophilus microplus injection test (BOOPMI Injection); conditions: Rhipicephalus microplus, 168 h, injection into adult engorged female ticks, egg deposition after 7 days, read-out: activity (efficacy, infertile eggs); for pest or weed control at 0.004 mg: 4 μg/animal; for pest or weed control at 0.02 mg: 20 μg/animal
Procedure, shortened: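 Adult engorged female ticks (5 per group) injected into the abdomen with 1 μL compound in DMSO, then held in a climate chamber. Fertile egg deposition scored after 7 days, with unclear eggs kept until hatching (~42 days). Efficacy 100% = all eggs infertile, 0% = all fertile.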

Ctenocephalides felis [3] = assay: Ctenocephalides felis in-vitro contact test, adult cat flea; conditions: 5 μg/cm^2 (=500 g/ha), after 48 hours, read-out: activity (efficacy, fleas dead or moribund)
Description: Ctenocephalides felis—in-Vitro Contact Tests Adult Cat Flea
as §1, with “[…]” for “250 μl_,”
as §2, with “cat fleas (Ctenocephalides felis),” for “brown dog ticks (Rhipicephalus sanguineus),”, “fleas” for “ticks”, “fleas,” for “ticks,”
An efficacy of 100% means all fleas are dead or moribund; 0% means no fleas are dead or moribund.

SMILES	pest or weed control at 5 µg/cm2 [1] [%]	pest or weed control at 100 g/ha (Diabrotica balteata) [%]	pest or weed control at 160 µg/disc, 500 g/ha (Diabrotica balteata) [%]	pest or weed control at 5 µg/cm2, 5 µg/cm2 (Rhipicephalus sanguineus) [%]	mortality at 100 g/ha (Spodoptera frugiperda) [%]	mortality at 500 g/ha (Spodoptera frugiperda) [%]	mortality at 100 ppm (Ctenocephalides felis [2]) [%]	pest or weed control at 0.004 mg (Boophilus microplus) [%]	pest or weed control at 0.02 mg (Boophilus microplus) [%]	pest or weed control at 5 µg/cm2, 5 µg/cm2 (Ctenocephalides felis [3]) [%]
C[C@H](Nc1nc2cc(C(F)(F)F)cc(Br)c2o1)c1ncnn1-c1ncccn1 [Example I-034]	90	100	80	100	100	100	100	100	100	–
C[C@H](Nc1nc2cc(C(F)(F)F)cc(Cl)c2o1)c1ncnn1-c1ncc(Cl)cn1 [Example I-036, 7-chloro-N-{(1S)-1-[1-(5-chloropyrimidin-2-yl)-1H-1,2,4-triazol-5-yl]ethyl}-5-(trifluoromethyl)-1,3-benzoxazol-2-amine]	100	100	–	100	100	–	100	100	100	80
C[C@H](Nc1nc2cc(C(F)(F)F)cc(Cl)c2o1)c1ncnn1-c1cnccn1 [Example I-039, 7-chloro-N-{(1S)-1-[1-(pyrazin-2-yl)-1H-1,2,4-triazol-5-yl]ethyl}-5-(trifluoromethyl)-1,3-benzoxazol-2-amine]	90	100	100	100	–	100	100	100	100	–
Cc1cnc(-n2ncnc2[C@H](C)Nc2nc3cc(C(F)(F)F)cc(Cl)c3o2)nc1 [Example I-040, 7-Chlor-N-{(1S)-1-[1-(5-methylpyrimidin-2-yl)-1H-1,2,4-triazol-5-yl]ethyl}-5-(trifluormethyl)-1,3-benzoxazol-2-amin]	90	100	–	100	–	–	100	100	–	100
C[C@H](Nc1nc2cc(C(F)(F)F)cc(Cl)c2o1)c1ncnn1-c1ccncn1 [Example I-047, 7-Chlor-N-{(1S)-1-[1-(pyrimidin-4-yl)-1H-1,2,4-triazol-5-yl]ethyl}-5-(trifluormethyl)-1,3-benzoxazol-2-amin]	100	100	100	100	100	100	–	100	100	–
C[C@H](Nc1nc2cc(C(F)(F)F)cc(Br)c2o1)c1ncnn1-c1ccc(C#N)cn1 [Example I-055, 6-[5-[(1S)-1-{[7-Brom-5-(trifluormethyl)-1,3-benzoxazol-2-yl]amino}ethyl]-1H-1,2,4-triazol-1-yl}nicotinonitril]	100	100	100	100	100	100	–	80	100	–
C[C@H](Nc1nc2cc(C(F)(F)F)c(Cl)cc2o1)c1ncnn1-c1ncc(Br)cn1 [Example I-062, N-{(1S)-1-[1-(5-Brompyrimidin-2-yl)-1H-1,2,4-triazol-5-yl]ethyl}-6-chlor-5-(trifluormethyl)-1,3-benzoxazol-2-amin]	100	100	100	100	100	100	–	100	100	100
C[C@H](Nc1nc2cc(C3CC3)cc(Cl)c2o1)c1ncnn1-c1ncccn1 [Example I-065, 7-Chlor-5-cyclopropyl-N-{(1S)-1-[1-(pyrimidin-2-yl)-1H-1,2,4-triazol-5-yl]ethyl}-1,3-benzoxazol-2-amin]	–	100	100	100	–	–	100	100	100	100
C[C@H](Nc1nc2cc(S(F)(F)(F)(F)F)cc(Cl)c2o1)c1ncnn1-c1ncc(Br)cn1 [Example I-083, N-{(1S)-1-[1-(5-Brompyrimidin-2-yl)-1H-1,2,4-triazol-5-yl]ethyl}-7-chlor-5-(pentafluor-lambda^6-sulfanyl)-1,3-benzoxazol-2-amin]	100	80	–	100	100	–	–	–	–	80
CC(Nc1nc2cc(C#N)cc(Cl)c2o1)c1ncnn1-c1ncccn1 (stereo not drawn) [Example I-084, 7-Chlor-2-({1-[1-(pyrimidin-2-yl)-1H-1,2,4-triazol-5-yl]ethyl}amino)-1,3-benzoxazol-5-carbonitril]	80	–	100	80	–	–	–	100	100	100
C[C@H](Nc1nc2cc(Cl)cc(C(F)(F)F)c2o1)c1ncnn1-c1ncccn1 [Example I-090, 5-Chlor-N-{(1S)-1-[1-(pyrimidin-2-yl)-1H-1,2,4-triazol-5-yl]ethyl}-7-(trifluormethyl)-1,3-benzoxazol-2-amin]	100	–	100	100	–	100	–	80	100	–
C[C@H](Nc1nc2cc(C(F)(F)F)c(Cl)cn2n1)c1ncnn1-c1ncccn1 [Example I-096, 6-chloro-N-{(1S)-1-[1-(pyrimidin-2-yl)-1H-1,2,4-triazol-5-yl]ethyl}-7-(trifluoromethyl)[1,2,4]triazolo[1,5-a]pyridin-2-amine]	90	–	–	100	–	–	100	–	–	100
C[C@H](Nc1nc2cc(Cl)c(C(F)(F)F)cn2n1)c1ncnn1-c1ncccn1 [Example I-097, 7-chloro-N-{(1S)-1-[1-(pyrimdin-2-yl)-1H-1,2,4-triazol-5-yl]ethyl}-6-(trifluoromethyl)[1,2,4]triazolo[1,5-a]pyridin-2-amine]	100	–	–	80	–	–	–	–	–	100
